# Experimental data taken from patent US12077508B2, “Inhibitors of the Notch transcriptional activation complex kinase (“NACK”) and methods for use of the same” (UNIVERSITY OF MIAMI, priority 2018, dated 2024).
# “Also recorded” adds a separate entry of the source.
# Legend:
# OE33 cell line = assay: Colony formation assay in OE33 cells; format: cell-based, human; conditions: cells treated every other day; FIGS. 5B, 5C
# Method: (§1) A cell based colony formation assay was used in these experiments. Normal mouse mammary epithelia HC11 cells have little or no endogenous NACK expression, and NACK knockdown had no effect on the growth of HC11 cells (FIG. 5A, lower panel). […] Knockdown of NACK was confirmed by western blot and qPCR (FIGS. 1D and 1E). […] Therefore, compounds that affect OE33 colony formation but not HC11 were desired. In order to screen the compounds, cells were treated with test compounds every other day.
# (§2) Colony formation assay was utilized to determine the effect of small molecule inhibitors on cell proliferation. In general, different cell lines (NACK dependent or independent) will be seeded in 6-well plates at a density of 2000 cells per well and allowed to attach overnight. Inhibitor treatment commenced 24 hours post seeding, and the media containing inhibitor was changed every 48 hours thereafter. After 168 hours, colonies were be stained with Crystal Violet (Millipore) and counted.
# HC11 cells = assay: Colony formation assay in HC11 cells; format: cell-based, mouse; conditions: Notch/NACK independent cell line; FIG. 5B
# Method: as §1, §2
# HES1 promoter = assay: Chromatin immunoprecipitation (ChIP) at the HES1 promoter in OE33; format: cell-based, human; conditions: 24 hours, FIG. 8C
# Method: Notch/NACK-dependent cells were treated with either DAPT as a positive control, DMSO (vehicle) as a negative control, or compounds for screening for 24 hours. After treatment, cells were cross-linked and sonicated to yield chromatin fragments of approximately 500 bp, as previously described (See Weaver et al., Cancer Research 74, 4741-4751 (2014)). Lysates were immunoprecipitated with either α-Notch1 (Bethyl Laboratories, Montgomery, TX; A301-894A), α-Maml1 (Cell Signaling, 12166s), α-NACK (Bethyl Laboratories, A302-675A), or α-PoIII pSer5 (Abcam, ab5131) antibodies. DNA immunoprecipitates were cleaned using the PCR purification Kit (Qiagen). DNA were detected by Syber green qPCR using HES1 specific oligonucleotide primers (forward: 5′CGTGTCTCCTCCTCCCATT3′ (SEQ ID NO: 2); reverse: 5′GGGGGATTCCGCTGTTAT3′ (SEQ ID NO:3)).
# OE33 cells = assay: Cell apoptosis assay (Annexin V/PI flow cytometry); format: cell-based, human; conditions: day 7 of treatment, FIG. 9A
# Method: To investigate how Z271-0326 inhibits cell growth in EAC cell lines, the effect of Z271-0326 treatment was evaluated on apoptosis. OE33 was treated either with the GSI DAPT or Z271-0326 every other day, and their effects on apoptosis were analyzed. On day 7 of treatment, cell apoptosis was analyzed using FITC Annexin V/Dead Cell Apoptosis Kit with FIFC annexin V and PI for flow cytometry (Invitrogen, V13242).
smiles,measurement,setting,value
"C[C@H](NC(=O)Cc1cc(F)cc(F)c1)C(=O)N[C@H](C(=O)OC(C)(C)C)c1ccccc1 [DAPT, reference compound]",OE33 colony formation,OE33 cell line,reduction in the colony formation
same,HC11 colony formation / viability,HC11 cells,did not alter the viability of HC11 cells; also recorded: insensitive
same,binding of N1ICD and NACK to the HES1 promoter,HES1 promoter,abrogated the binding of N1ICD and NACK to the HES1 promoter
same,increase in the percent of cells undergoing apoptosis compared to the control,OE33 cells,twofold
